Data reported in US5466675A, “Immunological activity of rhamnolipids” (priority 1992, dated 1995).

Experiments:
[1] = tested on: Candida albicans; test: immunorestoration: immunosuppression with cyclophosphamide and infection with Candida albicans; type: in vivo, mouse (ICR, female); conditions: for Survivor No.: n = 10
Source text: […] One day after the last immunosuppressant dose, the mice were challenged with a suspension of C. albicans sufficient to result in 90 to 100 percent mortality within 10 days in the vehicle treated control group. A greater than 30 percent survival for any drug treated group is considered significant, and possibly a result of immunorestorant activity.

[2] = tested on: oxazolone-induced delayed type hypersensitivity; test: immunostimulation (cellular): oxazolone-induced delayed type hypersensitivity; type: in vivo, mouse; conditions: IP 100 × 5 mg/kg
Description: The test substance was administered i.p to groups of 5 mice, 1 hour before application (sensitization) of oxazolone (0.1 ml of 5% solution) to the pre-shaven abdominal surface. Seven days later, 25 μl of a 2% solution of oxazolone was applied (challenge) to the right ear, with vehicle being applied to the left ear. After 24 hours, each mouse was sacrificed and ear thickness measured with a Dyer Model micrometer gauge. Greater than 30 percent enhancement is considered immunostimulant activity.

[3] = tested on: sheep red blood cell (SRBC) hemagglutination; test: immunosuppression (humoral): sheep red blood cell (SRBC) hemagglutination; type: in vivo, mouse (ICR, female); conditions: IP 30 × 3 mg/kg
Description: (§1) Groups of 6 mice were sensitized by the IV injection of 0.2 ml of a 2% SRBC suspension. On the 9th day following sensitization, blood samples were withdrawn from the orbital sinus and equal parts of complement inactivated serum from the group of 6 mice were pooled to yield a single 0.25 ml sample. Serial 2-fold dilutions were then carried out 10 times in the presence of added complement. […] Serum titers of less than 16 or greater than 128 are considered significant and indicate possible immunosuppressant and immunostimulant activity, respectively.
(§2) For immunostimulant activity, test substance or vehicle was administered i.p. to groups of mice for 3 consecutive days, and sensitized to SRBCs 2 hours after the third (last) injection. For immunosuppressant activity, test substance or vehicle was administered i.p. to groups of mice for 3 consecutive days beginning 2 hours after sensitization to SRBCs.

[4] = tested on: oxazolone-induced delayed type hypersensitivity; test: immunosuppression (cellular): oxazolone-induced delayed type hypersensitivity; type: in vivo, mouse (ICR, female); conditions: IP 30 × 5 mg/kg
Description: The shaved abdominal surface of groups of 5 mice were sensitized by application of 0.1 ml of 5% oxazolone. The test substance was administered i.p after 1 hour and then daily for 5 consecutive doses. After an additional 4 days, the animals were challenged by application of 25 ul of 5% oxazolone to the right ear. Twenty-four hours later, ear thickness was measured with a Dyer Model micrometer gauge.
A 50 percent or greater decrease in drug-treated versus control animals is considered significant immunosuppressant activity.

[5] = tested on: sheep red blood cell (SRBC) hemagglutination; test: immunostimulation (humoral): sheep red blood cell (SRBC) hemagglutination; type: in vivo, mouse (ICR, female); conditions: IP 30 × 3 mg/kg
Description: as §1, §2

[6] = tested on: Candida albicans; test: immunomodulation: infection with Candida albicans; type: in vivo, mouse (ICR, female); conditions: IP 30 mg/kg
Description: The test compound or vehicle was administered i.p. to groups of 10 mice 1 hour before IV, challenge with suspension of C. albicans sufficient to result in 90 to 100% mortality within 10 days in the vehicle treated control group. A greater than 30 percent survival for any treated group is considered very significant, and possibly a result of immunomodulation, while an increase of 20% is considered a moderate immunomodulation activity.

[7] = tested on: phospholipase A2; conditions: Japanese patent No. 63 253 025; cited from earlier work
[8] = IP 100 × 3 mg/kg + cyclophosphamide
[9] = cyclophosphamide alone, PO 30 × 3 mg/kg

CC(C)(N1CC1C#N)N1CC1C(N)=O (stereo not shown) [Azimexone, reference compound]
Death, days post-inoculum 0-1 [1, 8]: 2 #/10 Mice
Death, days post-inoculum 2-3 [1, 8]: 1 #/10 Mice
Death, days post-inoculum 4-6 [1, 8]: 1 #/10 Mice
Death, days post-inoculum 7-9 [1, 8]: 1 #/10 Mice
Response Inc. % [1, 8]: 30%
Survivor No. [1, 8]: 5
Swelling Inc. % [2]: 31%
Swelling (R -L) ([2]; X ± SEM): 22.8 +/- 0.9 × 0.01 mm
ear thickness, Left Ear (No Oxa.) ([2]; X ± SEM): 21.4 +/- 0.5 × 0.01 mm
ear thickness, Right Ear (24 hrs Oxa.) ([2]; X ± SEM): 44.2 +/- 0.7 × 0.01 mm

O=P1(N(CCCl)CCCl)NCCCO1 (stereo not shown) [Cyclophosphamide, reference compound]
Death, days post-inoculum 0-1 [1, 9]: 3 #/10 Mice
Death, days post-inoculum 2-3 [1, 9]: 2 #/10 Mice
Death, days post-inoculum 4-6 [1, 9]: 2 #/10 Mice
Death, days post-inoculum 7-9 [1, 9]: 1 #/10 Mice
Survivor No. [1, 9]: 2
SERUM TITER (Reciprocal Serum Dilution) [3]: 4
Swelling Inh. % [4]: 59%
Swelling (R -L) ([4]; X +/- SEM): 10.6 +/- 1.8 × 0.01 mm
ear thickness, Left Ear (No Oxa.) ([4]; X +/- SEM): 19.0 +/- 0.4 × 0.01 mm
ear thickness, Right Ear (24 hrs Oxa.) ([4]; X +/- SEM): 29.6 +/- 2.2 × 0.01 mm

c1ccc([C@H]2CN3CCSC3=N2)cc1 [Levamisole, reference compound]
SERUM TITER (Reciprocal Serum Dilution) [5]: 128
Death, days post-inoculum 0-1 [6]: 3 #/10 Mice
Death, days post-inoculum 2-3 [6]: 3 #/10 Mice
Death, days post-inoculum 4-6 [6]: 0 #/10 Mice
Death, days post-inoculum 7-9 [6]: 0 #/10 Mice
Response Inc. % [6]: 20%
Survivor No. ([6]; n = 10): 4

rhamnopyranosyldecanoic acid
phospholipase A2 inhibition [7]: phospholipase A2 inhibition
